Activity calls are given as the source filed them. How the calls were made is not given here.
test system: Broad 7084-01 inhibitor HTS, set 2; test: inhibitors in Broad screen 7084-01, set 2 (AID 977613);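 further: host cells are infected with parasite promastigotes that become internalized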

| Compound | active concentration |
| --- | --- |
| COc1cccc(S(=O)(=O)N2CCCCN3[C@H](C2)[C@H](c2ccc(C#CCC(C)C)cc2)[C@@H]3CO)c1 | > 10 µM (inactive) |
| COc1ccc(NC(=O)N2CC(=O)N3[C@@H](CO)[C@H](c4ccc(Br)cc4)[C@@H]3C2)cc1 | > 10 µM (inactive) |
| CN(C)C(=O)c1ccc(-c2ccc3c(c2)[C@@H]2[C@@H](CCN2Cc2ccc4c(c2)OCO4)[C@@H](CO)N3)cc1 | > 10 µM (inactive) |
| COC(=O)C[C@@H]1CC[C@@H]2[C@H](COc3ccc(NS(=O)(=O)c4ccccc4Cl)cc3C(=O)N2C)O1 | > 10 µM (inactive) |
| O=C(c1ccc2c(c1)OCO2)N1C[C@H]2[C@@H](c3ccccc31)[C@@H](CO)N2C(=O)CC1CC1 | > 10 µM (inactive) |
| O=C(C[C@@H]1CC[C@@H]2[C@H](COC[C@H](O)CN2Cc2nccs2)O1)NCc1ccccc1 | > 10 µM (inactive) |
| O=C(C[C@@H]1CC[C@H]2[C@@H](COC[C@H](O)CN2C(=O)Nc2cc(Cl)cc(Cl)c2)O1)NCC1CCCCC1 | > 10 µM (inactive) |
| O=C(O)[C@H]1[C@H](CO)[C@H]2Cn3c(ccc(-c4ccccc4F)c3=O)[C@@H]1N2C(=O)c1cccnc1 | > 10 µM (inactive) |
| N#C[C@H]1[C@H](c2ccccc2-c2ccccc2F)[C@H](CO)N1C(=O)C1CCC1 | > 10 µM (inactive) |
| COc1ccc(NC(=O)N2CC[C@@H]3[C@H]2c2cc(Br)ccc2N(C)[C@H]3CO)cc1 | > 10 µM (inactive) |
| O=C(C[C@@H]1CC[C@@H]2[C@H](COC[C@H](O)CN2CC2CC2)O1)NCC1CC1 | > 10 µM (inactive) |
| O=C(C[C@@H]1CC[C@@H]2[C@H](COC[C@@H](O)CN2S(=O)(=O)c2ccccc2)O1)Nc1ccccc1 | > 10 µM (inactive) |
| Cn1cnc(S(=O)(=O)N2C[C@@H](O)COC[C@H]3O[C@@H](CC(=O)NC4CCCC4)CC[C@@H]32)c1 | > 10 µM (inactive) |
| CC(C)NC(=O)N1C[C@@H]2[C@H](c3ccccc31)[C@@H](CO)N2Cc1ccccn1 | < 10 µM |
| O=C1CN(S(=O)(=O)Cc2ccccc2)C[C@H]2[C@@H](c3ccc(C#Cc4ccccc4)cc3)[C@H](CO)N12 | > 10 µM (inactive) |
| CN1C(=O)c2cc(NS(C)(=O)=O)ccc2OC[C@H]2O[C@@H](CC(=O)NC3CCCCC3)CC[C@@H]21 | > 10 µM (inactive) |
| CN1C(=O)c2cc(NS(C)(=O)=O)ccc2OC[C@H]2O[C@H](CC(=O)N3CCOCC3)CC[C@@H]21 | > 10 µM (inactive) |
| O=C(C1CCOCC1)N1C[C@H]2[C@@H](c3ccccc31)[C@H](CO)N2C(=O)Cc1ccccc1 | > 10 µM (inactive) |
| CN(C)CC(=O)N1[C@H](CO)[C@H](c2ccccc2-c2ccccc2F)[C@@H]1C#N | > 10 µM (inactive) |
| COC(=O)[C@H]1[C@H](CO)[C@H]2Cn3c(ccc(-c4ccccc4OC)c3=O)[C@H]2N1C(=O)c1cnccn1 | > 10 µM (inactive) |
| CC(C)CC#Cc1ccc([C@H]2[C@H](CO)N3C(=O)CN(C(=O)c4ccccn4)C[C@@H]23)cc1 | > 10 µM (inactive) |
| CN1C(=O)c2cc(NC(=O)Cc3cccs3)ccc2OC[C@H]2O[C@H](CC(=O)N[C@@H]3CCN(Cc4ccccc4)C3)CC[C@H]21 | > 10 µM (inactive) |
| O=S(=O)(c1cccs1)N1CCCCN2[C@@H](CO)[C@@H](c3ccc(/C=C/c4ccccc4)cc3)[C@@H]2C1 | > 10 µM (inactive) |

| Compound | active concentration |
| --- | --- |
| O=C(c1ccccn1)N1CC[C@@H]2[C@H](CO)Nc3ccc(Br)cc3[C@@H]21 | > 10 µM (inactive) |
| COc1ccc2c3c([nH]c2c1)[C@@H](CO)NCC31CN(Cc2cc(F)ccc2F)C1 | > 10 µM (inactive) |
| C/C=C/c1ccccc1[C@@H]1[C@H](C#N)N(C(C)=O)[C@H]1CO | > 10 µM (inactive) |
| O=S(=O)(c1ccccc1)N1CCCCN2[C@H](CO)[C@H](c3ccc(C#CC4CCCC4)cc3)[C@@H]2C1 | > 10 µM (inactive) |
| O=C(C1CC1)N1CC2(C1)[C@H](c1ccccc1)[C@@H](CO)N2Cc1nccs1 | > 10 µM (inactive) |
| CCS(=O)(=O)N1[C@H](CO)[C@@H](c2ccccc2)C12CN(C(=O)C1CCCCC1)C2 | > 10 µM (inactive) |
| O=C(Nc1cc(F)ccc1F)N1CCCCN2[C@@H](CO)[C@@H](c3ccc(C4=CCCCC4)cc3)[C@@H]2C1 | > 10 µM (inactive) |
| COc1ccc2c3c([nH]c2c1)[C@H](CO)N(C)CC31CCN(C(=O)c2ccccc2F)CC1 | > 10 µM (inactive) |
| COc1ccccc1S(=O)(=O)N1CC[C@H]2[C@H](CO)Nc3ccc(-c4ccc(C#N)cc4)cc3[C@H]21 | > 10 µM (inactive) |
| N#Cc1cccc(-c2ccc3c(c2)[C@H]2[C@H](CCN2S(=O)(=O)c2ccc(F)cc2)[C@@H](CO)N3)c1 | > 10 µM (inactive) |
| COC(=O)c1ccc(CN2CC(=O)N3[C@H](CO)[C@@H](c4ccc(-c5cccnc5)cc4)[C@H]3C2)cc1 | > 10 µM (inactive) |
| CN1C(=O)c2cc(NC(=O)C3CCOCC3)ccc2OC[C@H]2O[C@@H](CC(=O)NCC3CCCCC3)CC[C@H]21 | > 10 µM (inactive) |
| O=C(Nc1ccccc1F)N1CC(=O)N2[C@H](CO)[C@@H](c3ccc(-c4cccnc4)cc3)[C@@H]2C1 | > 10 µM (inactive) |
| COc1ccccc1CN1[C@@H](CO)[C@@H]2c3ccccc3N(C(=O)c3cccnc3)C[C@@H]21 | > 10 µM (inactive) |
| O=C(C[C@H]1CC[C@H]2[C@@H](COC[C@H](O)CN2S(=O)(=O)c2ccc(F)cc2)O1)NCC1CC1 | > 10 µM (inactive) |
| O=C(NC1Cc2ccccc2C1)[C@H]1[C@H](CO)[C@H]2Cn3c(cccc3=O)[C@H]2N1C(=O)c1cnccn1 | > 10 µM (inactive) |
| COC(=O)[C@H]1[C@H](CO)[C@H]2Cn3c(ccc(C4=CCCCC4)c3=O)[C@H]2N1Cc1ccc2c(c1)OCO2 | > 10 µM (inactive) |
| COc1ccc2c3c([nH]c2c1)[C@@H](CO)N(S(=O)(=O)c1cn(C)cn1)CC31CCN(CC2CCCCC2)CC1 | > 10 µM (inactive) |
| COc1cccc(C(=O)Nc2ccc3c(c2)C(=O)N(C)[C@H]2CC[C@@H](CC(=O)NCCCN4CCOCC4)O[C@@H]2CO3)c1 | > 10 µM (inactive) |
| N#C[C@H]1[C@@H](c2ccccc2C2=CCCC2)[C@@H](CO)N1S(=O)(=O)c1ccccc1 | > 10 µM (inactive) |
| O=C(C1CCCCC1)N1CC(=O)N2[C@H](CO)[C@H](c3ccc(-c4ccccc4F)cc3)[C@@H]2C1 | > 10 µM (inactive) |
| N#C[C@H]1[C@H](c2ccccc2-c2ccccc2F)[C@@H](CO)N1C(=O)C1CCC1 | > 10 µM (inactive) |
| O=C(C[C@@H]1CC[C@H]2[C@@H](COC[C@@H](O)CN2C(=O)Nc2ccc(Cl)cc2)O1)NCC1CC1 | > 10 µM (inactive) |

| Compound | active concentration |
| --- | --- |
| O=C(CC(F)(F)F)N1C[C@@H]2[C@H](c3ccccc31)[C@H](CO)N2CC1CCOCC1 | > 10 µM (inactive) |
| COc1ccccc1NC(=O)N1CC(=O)N2[C@H](CO)[C@@H](c3ccc(-c4cccc(C)c4)cc3)[C@@H]2C1 | > 10 µM (inactive) |
| CCC(=O)N1CC2(C1)[C@H](c1ccc(-c3ccc(C)cc3)cc1)[C@@H](CO)N2S(=O)(=O)CC | > 10 µM (inactive) |
| COc1ccc(C#Cc2ccc3c(c2)[C@H]2[C@H](CCN2C(=O)c2cccc(F)c2)[C@@H](CO)N3)cc1 | > 10 µM (inactive) |
| Cc1noc(C)c1NC(=O)N1C[C@H](O)COC[C@H]2O[C@H](CC(=O)NCC3CCCCC3)CC[C@@H]21 | > 10 µM (inactive) |
| O=C(c1cnccn1)N1CC(=O)N2[C@H](CO)[C@H](c3ccc(C#CC4CC4)cc3)[C@@H]2C1 | > 10 µM (inactive) |
| CN1C(=O)c2cc(NC(=O)Cc3cccs3)ccc2OC[C@@H]2O[C@@H](CC(=O)N[C@@H]3CCN(Cc4ccccc4)C3)CC[C@H]21 | > 10 µM (inactive) |
| Cc1ccc(NC(=O)Nc2ccc3c(c2)C(=O)N(C)[C@@H]2CC[C@H](CC(=O)NCC(F)(F)F)O[C@@H]2CO3)cc1 | > 10 µM (inactive) |
| CCCC#Cc1ccc([C@@H]2[C@H]3CN(S(=O)(=O)c4ccccc4C)CC(=O)N3[C@H]2CO)cc1 | > 10 µM (inactive) |
| Cc1ccccc1-c1ccc([C@H]2[C@H](CO)N3C(=O)CN(C(=O)Nc4cccc(F)c4)C[C@@H]23)cc1 | > 10 µM (inactive) |
| Cc1ccccc1-c1ccc([C@@H]2[C@@H](CO)N3CCCCN(S(=O)(=O)Cc4ccccc4)C[C@H]23)cc1 | > 10 µM (inactive) |
| O=C1CNC[C@@H]2[C@@H](c3ccc(-c4ccccc4F)cc3)[C@H](CO)N12 | > 10 µM (inactive) |
| C[C@@H](NC(=O)[C@@H]1[C@@H](CO)[C@@H]2Cn3c(ccc(-c4ccncc4)c3=O)[C@@H]2N1C)c1ccccc1 | > 10 µM (inactive) |
| C/C=C/c1ccccc1[C@H]1[C@@H](CO)N(C(=O)Nc2cccc(F)c2)[C@H]1C#N | > 10 µM (inactive) |
| O=C(NCCc1ccncc1)[C@H]1[C@H](CO)[C@H]2Cn3c(ccc(-c4ccccc4)c3=O)[C@H]2N1C(=O)C1CC1 | > 10 µM (inactive) |
| CN1CCCCN2[C@H](C1)[C@H](c1ccc(-c3ccc(F)cc3)cc1)[C@@H]2CO | > 10 µM (inactive) |
| Cc1ccc(S(=O)(=O)N2CC[C@@H]3[C@H]2c2cc(C#Cc4ccc(F)cc4)ccc2N[C@@H]3CO)cc1 | > 10 µM (inactive) |
| O=C(C[C@@H]1CC[C@@H]2[C@H](COC[C@@H](O)CN2Cc2cccc(C(F)(F)F)c2)O1)NCc1ccccc1 | > 10 µM (inactive) |
| COc1ccccc1-c1ccccc1[C@H]1[C@@H](C#N)N(C(=O)CN(C)C)[C@@H]1CO | > 10 µM (inactive) |
| N#C[C@H]1[C@@H](c2ccccc2C2=CCCCC2)[C@H](CO)N1C(=O)C1CCOCC1 | > 10 µM (inactive) |
| COc1ccc2c3c([nH]c2c1)[C@H](CO)N(C(C)=O)CC31CN(Cc2ccccc2Cl)C1 | > 10 µM (inactive) |
| O=C(C[C@@H]1CC[C@@H]2[C@H](COC[C@H](O)CN2CC2CC2)O1)NCc1ccc(Cl)cc1 | > 10 µM (inactive) |
| COc1ccccc1-c1ccc2n(c1=O)C[C@H]1[C@H](CO)[C@@H](C(=O)NCc3ccccc3Cl)N[C@@H]21 | > 10 µM (inactive) |

Source: PubChem BioAssay AID977613 (Broad Institute, 2014)
